Common to all, as to type: in vivo
Experiment [1] relates to cotton aphid (Aphis gossypii). Kind of experiment: Aphis gossypii test. Conditions: single active compound, 1.6 ppm, cotton leaves dipped. On the procedure:
(§1) To produce a suitable preparation of active compound, 1 part by weight of active compound is mixed with the stated amounts of solvent and emulsifier, and the concentrate is diluted with water to the desired concentrations.
Cotton leaves (Gossypium hirsutum) which are heavily infested by the cotton aphid (Aphis gossypii) are treated by being dipped into the preparation of active compound of the desired concentration.
After the desired period of time, the kill in % is determined. 100% means that all aphids have been killed; 0% means that none of the aphids have been killed. The kill rates that are determined are assessed using Colby's formula.

Experiment [2] has as its system larvae of the cotton aphid (Aphis gossypii). Kind of experiment: Aphis gossypii test/larval mortality. The following applies: single active compound, 1.6 ppm, cotton leaves dipped. On the procedure:
Aphis Gossypii Test/Larval Mortality
as §1
Cotton leaves (Gossypium hirsutum) which are heavily infested by adults and larvae of the cotton aphid (Aphis gossypii) are treated by being dipped into the preparation of active compound of the desired concentration.
After the desired period of time, the kill of larvae in % is determined. 100% means that all larvae have been killed; 0% means that none of the larvae have been killed. The kill rates that are determined are assessed using Colby's formula.

Experiment [3] relates to peach aphid (Myzus persicae). Kind of experiment: Myzus test. The following applies: single active compound, 1.6 ppm, cabbage leaves dipped. On the procedure:
as §1
Cabbage leaves (Brassica oleracea) which are heavily infested by the peach aphid (Myzus persicae) are treated by being dipped into the preparation of active compound of the desired concentration.
After the desired period of time, the kill in % is determined. 100% means that all animals have been killed; 0% means that none of the animals have been killed. The kill rates determined are assessed using Colby's formula.

Experiment [4] deals with larvae of the peach aphid (Myzus persicae). As to the kind of experiment: Myzus test/larval mortality. The following applies: single active compound, 0.32 ppm, cabbage leaves dipped. On the procedure:
Myzus Test/Larval Mortality
as §1
Cabbage leaves (Brassica oleracea) which are heavily infested by adults and larvae of the peach aphid (Myzus persicae) are treated by being dipped into the preparation of active compound of the desired concentration.
After the desired period of time, the kill of the larvae in % is determined. 100% means that all larvae have been killed; 0% means that none of the larvae have been killed. The kill rates determined are assessed using Colby's formula.

For `N#C/N=C1\SCCN1Cc1ccc(Cl)nc1` [Ex. (IIk)], in experiment [1], the “Kill rates in % after 6d” value came out at 55%. Further, in experiment [2], the “Kill rate in % after 6d (larvae)” value turned out to be 60%.

For the molecule `O=[N+]([O-])/N=C1\NCCN1Cc1ccc(Cl)nc1` [Ex. (IIa)], the “Kill rates in % after 1d” value in experiment [3] is recorded as 70%. In experiment [1], the “Kill rates in % after 6d” value amounted to 85%. Further, the “Kill rate in % after 6d (larvae)” value in experiment [2] is reported as 80%. Moreover, the “Kill rates in % after 1d (larvae)” value in experiment [4] is 0%.

Take `CCC(C)(C)C(=O)OC1=C(c2ccc(Cl)cc2Cl)C(=O)OC12CCCCC2` [Ex. (Ia)]: the “Kill rates in % after 1d” value in experiment [3] was determined as 0%. Further, the “Kill rates in % after 6d” value in experiment [1] was 0%. Also, the “Kill rate in % after 6d (larvae)” value in experiment [2] came to 0%. For the same molecule, the “Kill rates in % after 1d (larvae)” value in experiment [4] amounted to 0%.

The values above are taken from US8841294B2, “Active ingredient combinations having insecticidal and acaricidal properties” (Bayer Cropscience AG, priority 1999, dated 2014).
